Measured values published in US20160158200A1, “Combinations of Hepatitis C Virus Inhibitors” (priority 2013, published 2016).

Each compound was assayed on HCV genotype-1a variant with glutamine 30 changed to glutamate in the NS5A protein. Settings: test compound titrated with BMS-790052 fixed at 200 nM; genotype 1a Q30E replicon.
Format: cell-based
How it was run: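 Synergy was assessed by combining several fixed amounts of an NS5A-targeting compound with a titration of the second compound of interest.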

SMILES | Fold-Synergistic 1a (Q30E)
CC(C)(C)[C@H](NC(=O)C1CCC(F)(F)CC1)c1nc2ccc(-c3ccc(-c4ccc5nc([C@@H](NC(=O)C6CCC(F)(F)CC6)C(C)(C)C)[nH]c5c4)cc3)cc2[nH]1 [Compound B32] | >100 fold
COc1ccccc1C(O)CC(=O)N[C@H](c1nc(-c2ccc(-c3ccc(-c4c[nH]c([C@@H](NC(=O)C5(C(O)c6ccccc6OC)CC5)C(C)(C)C)n4)cc3)cc2)c[nH]1)C(C)(C)C (single isomer, unassigned) [Compound N-135B] | >100 fold
CC(C)(C)C(=O)N1CCC(C)(C)C1c1nc(-c2ccc(-c3ccc(-c4c[nH]c(C5N(C(=O)C(C)(C)C)CCC5(C)C)n4)cc3)cc2)c[nH]1 (stereo not shown) [Compound W-219] | >10 fold
COC1(C(=O)N[C@H](c2ncc(-c3ccc(-c4ccc(-c5cnc([C@@H](NC(=O)C6(OC)CCC(F)(F)CC6)C6(C)CC6)[nH]5)cc4)cc3)[nH]2)C2(C)CC2)CCC(F)(F)CC1 [Compound P-132] | >100 fold
CC1(C(=O)N[C@H](c2nc(-c3ccc(-c4ccc(-c5c[nH]c([C@@H](NC(=O)C6(C)CCC(F)(F)CC6)C(C)(C)C)n5)cc4)cc3)c[nH]2)C(C)(C)C)CCC(F)(F)CC1 [Compound P-20] | >100 fold
CC(C)(C)C(NC(=O)C1(O)CCCOC1)c1nc(-c2ccc(-c3ccc(-c4c[nH]c(C(NC(=O)C5(O)CCCOC5)C(C)(C)C)n4)cc3)cc2)c[nH]1 (mixture of isomers) [Compound Y-102] | >100 fold
COc1ccc(C(=O)N[C@H](c2ncc(-c3ccc(-c4ccc(-c5cnc([C@@H](NC(=O)c6ccc(OC)cc6)C(C)C)[nH]5)cc4)cc3)[nH]2)C(C)C)cc1 [Compound S-28] | >100 fold
CC(C)(C)OC(=O)N1CC(C)(C)OCC1C(=O)NC(c1nc(-c2ccc(-c3ccc(-c4c[nH]c(C(NC(=O)C5COC(C)(C)CN5C(=O)OC(C)(C)C)C(C)(C)C)n4)cc3)cc2)c[nH]1)C(C)(C)C [Compound L-60] | >100 fold
CC(O)C1(C(=O)N[C@H](c2ncc(-c3ccc(-c4ccc(-c5cnc([C@@H](NC(=O)C6(C(C)O)CC6)C(C)(C)C)[nH]5)cc4)cc3)[nH]2)C(C)(C)C)CC1 (single isomer, unassigned) [Compound B74] | >100 fold
O=C(OC1CCCC1)N1CCC[C@H]1c1ncc(-c2ccc(-c3ccc(-c4cnc([C@@H]5CCCN5C(=O)OC5CCCC5)[nH]4)cc3)cc2)[nH]1 [Compound S-225] | >10 fold
CC(C)[C@H](NC(=O)C12CC3CC(CC(C3)C1)C2)c1ncc(-c2ccc(-c3ccc(-c4cnc([C@@H](NC(=O)C56CC7CC(CC(C7)C5)C6)C(C)C)[nH]4)cc3)cc2)[nH]1 [Compound P-60] | >100 fold
CC(C)(C)[C@H](NC(=O)[C@@H]1C[C@@H]2CC(F)(F)C[C@@H]2C1)c1nc(-c2ccc(-c3ccc(-c4c[nH]c([C@@H](NC(=O)[C@@H]5C[C@@H]6CC(F)(F)C[C@@H]6C5)C(C)(C)C)n4)cc3)cc2)c[nH]1 [Compound P-43] | >100 fold
CCN(CC)C(=O)NC(c1nc(-c2ccc(-c3ccc(-c4c[nH]c(C(NC(=O)N(CC)CC)C(C)C)n4)cc3)cc2)c[nH]1)C(C)C (stereo not shown) [Compound S-229] | >100 fold
CC(C)[C@H](NC(=O)c1ccc(C(F)(F)F)nc1)c1ncc(-c2ccc(-c3ccc(-c4cnc([C@@H](NC(=O)C(C)(C)C)C(C)C)[nH]4)cc3)cc2)[nH]1 [Compound Y-53] | >100 fold
COC(=O)N[C@H](C(=O)N1CCC[C@H]1c1ncc(-c2ccc(-c3ccc(-c4cnc([C@@H](NC(=O)[C@@H]5CCCN5C(=O)OC(C)(C)C)C(C)(C)C)[nH]4)cc3)cc2)[nH]1)C(C)C [Compound B-191] | >10 fold
CC(C)(C(=O)N[C@H](c1ncc(-c2ccc(-c3ccc(-c4cnc([C@@H](NC(=O)C(C)(C)C5CCOCC5)C(C)(C)C)[nH]4)cc3)cc2)[nH]1)C(C)(C)C)C1CCOCC1 [Compound B98] | >100 fold
O=C([C@@H]1C[C@H]1c1ccccc1)N1CCC[C@H]1c1ncc(-c2ccc(-c3ccc(-c4cnc([C@@H]5CCCN5C(=O)[C@@H]5C[C@H]5c5ccccc5)[nH]4)cc3)cc2)[nH]1 [Compound S-161] | >10 fold
CC(C)[C@H](NC(=O)OC(C)(C)C)c1ncc(-c2ccc(-c3ccc(-c4cnc([C@@H](NC(=O)OC(C)(C)C)C(C)(C)C)[nH]4)cc3)cc2)[nH]1 [Compound Y-40] | >100 fold
CC(C)(C)[C@H](NC(=O)C(C)(O)C1(C)CC1)c1nc(-c2ccc(-c3ccc(-c4c[nH]c([C@@H](NC(=O)C(C)(O)C5(C)CC5)C(C)(C)C)n4)cc3)cc2)c[nH]1 (single isomer, unassigned) [Compound L-93c] | >100 fold
CC(C)CC(=O)N(C)C(c1ncc(-c2ccc(-c3ccc(-c4cnc(C(C(C)C)N(C)C(=O)CC(C)C)[nH]4)cc3)cc2)[nH]1)C(C)C (stereo not shown) [Compound P-54] | >100 fold

SMILES | Fold-Synergistic 1a (Q30E)
CC(C)[C@H](NC(=O)C(C)(C)OCC(F)(F)F)c1ncc(-c2ccc(-c3ccc(-c4cnc([C@@H](NC(=O)C(C)(C)OCC(F)(F)F)C(C)C)[nH]4)cc3)cc2)[nH]1 [Compound Y-31] | >100 fold
CC(C)OC(=O)NC(C)(C)C(=O)N[C@H](c1nc(-c2ccc(-c3ccc(-c4c[nH]c([C@@H](NC(=O)C(C)(C)NC(=O)OC(C)C)C(C)(C)C)n4)cc3)cc2)c[nH]1)C(C)(C)C [Compound Q-3] | >100 fold
CC(C)[C@H](NC(=O)c1cc(Cl)ccc1F)c1nc(-c2ccc(-c3ccc(-c4c[nH]c([C@@H](NC(=O)c5cc(Cl)ccc5F)C(C)C)n4)cc3F)cc2)c[nH]1.O=C(O)C(F)(F)F [Compound N-99] | >100 fold
CC(C)[C@H](NC(=O)C(C)(C)C(O)C1CC(F)(F)C1)c1nc(-c2ccc(-c3ccc(-c4c[nH]c([C@@H](NC(=O)C(C)(C)C(O)C5CC(F)(F)C5)C(C)C)n4)cc3)cc2)c[nH]1 (single isomer, unassigned) [Compound N-145A] | >100 fold
CO[C@@H](C(=O)N[C@H](c1nc(-c2ccc(-c3ccc(-c4c[nH]c([C@@H](NC(=O)[C@H](OC)c5ccccc5)C(C)(C)C)n4)cc3)cc2)c[nH]1)C(C)(C)C)c1ccccc1 [Compound P-15] | >100 fold
CC1(C(=O)NC(c2nc(-c3ccc(-c4ccc(-c5c[nH]c(C(NC(=O)C6(C)CCC(F)(F)CO6)C(C)(C)C)n5)cc4)cc3)c[nH]2)C(C)(C)C)CCC(F)(F)CO1 (single isomer, unassigned) [Compound Y-67B] | >100 fold
CC(C)[C@H](NC(=O)CCC1CCCC1)c1ncc(-c2ccc(-c3ccc(-c4cnc([C@@H](NC(=O)CCC5CCCC5)C(C)C)[nH]4)cc3)cc2)[nH]1 [Compound S-25] | >100 fold
CC(C)[C@H](NC(=O)[C@H](NC(=O)OCC(C)(C)C)C(C)C)c1ncc(-c2ccc(-c3ccc(-c4cnc([C@@H](NC(=O)[C@H](NC(=O)OCC(C)(C)C)C(C)C)C(C)C)[nH]4)cc3)cc2)[nH]1 [Compound S-253] | >100 fold
CC(C)(C)CN[C@H](c1nc(-c2ccc(-c3ccc(-c4c[nH]c([C@@H](NCC(C)(C)C)C(C)(C)C)n4)cc3)cc2)c[nH]1)C(C)(C)C [Compound L-1] | >100 fold
CCCOC(=O)N[C@H](c1ncc(-c2ccc(-c3ccc(-c4cnc([C@@H](NC(=O)OCCC)C(C)C)[nH]4)cc3)cc2)[nH]1)C(C)C [Compound S-208] | >100 fold
CC(C)[C@H](NC(=O)N(c1ccccc1)c1ccccc1)c1nc(-c2ccc(-c3ccc(-c4c[nH]c([C@@H](NC(=O)N(c5ccccc5)c5ccccc5)C(C)C)n4)cc3)cc2)c[nH]1 [Compound S-227] | >100 fold
CC(C)[C@H](NC(=O)c1cccc(C#N)c1)c1ncc(-c2ccc(-c3ccc(-c4cnc([C@@H](NC(=O)c5cccc(C#N)c5)C(C)C)[nH]4)cc3)cc2)[nH]1 [Compound S-72] | >100 fold
COC(=O)NC(C(=O)NC(c1ncc(-c2ccc(-c3ccc(-c4cnc(C5CCCN5C(=O)C(NC(=O)OC)C(C)C)[nH]4)cc3)cc2)[nH]1)C(C)(C)C)C(C)C (stereo not shown) [Compound B-194] | <10 fold
CC(C)[C@H](NC(=O)c1c(F)cc(F)cc1F)c1ncc(-c2ccc(-c3ccc(-c4cnc([C@@H](NC(=O)c5c(F)cc(F)cc5F)C(C)C)[nH]4)cc3)cc2)[nH]1 [Compound S-92] | >100 fold
CC(C)[C@H](NC(=O)[C@H]1Cc2ccccc21)c1ncc(-c2ccc(-c3ccc(-c4cnc([C@@H](NC(=O)[C@H]5Cc6ccccc65)C(C)C)[nH]4)cc3)cc2)[nH]1 [Compound P-109] | >100 fold
CC(C)[C@H](NC(=O)CC(c1ccccc1)c1ccccc1)c1ncc(-c2ccc(-c3ccc(-c4cnc([C@@H](NC(=O)CC(c5ccccc5)c5ccccc5)C(C)C)[nH]4)cc3)cc2)[nH]1 [Compound S-30] | >100 fold
CC(C)(C)[C@H](NC(=O)[C@@](C)(O)c1ccccc1)c1nc(-c2ccc(-c3ccc(-c4c[nH]c([C@@H](NC(=O)[C@@](C)(O)c5ccccc5)C(C)(C)C)n4)cc3)cc2)c[nH]1 [Compound L-95] | >100 fold
CC(C)(C)[C@H](NC(=O)C(=O)N1CCC(F)(F)CC1)c1nc(-c2ccc(-c3ccc(-c4c[nH]c([C@@H](NC(=O)C(=O)N5CCC(F)(F)CC5)C(C)(C)C)n4)cc3)cc2)c[nH]1 [Compound W-24] | >100 fold
COCC1(C(=O)N[C@H](c2nc(-c3ccc(-c4ccc(-c5c[nH]c([C@@H](NC(=O)C6(COC)CCC6)C(C)(C)C)n5)cc4)cc3)c[nH]2)C(C)(C)C)CCC1 [Compound N-59] | >100 fold
CC(C)(C)[C@H](NC(=O)C1CCC(=C(F)F)CC1)c1nc(-c2ccc(-c3ccc(-c4c[nH]c([C@@H](NC(=O)C5CCC(=C(F)F)CC5)C(C)(C)C)n4)cc3)cc2)c[nH]1 (stereo partly shown) [Compound N-121] | >100 fold
